What was measured:
[1] = tested on: E. coli 0111; assay: Antimicrobial assay for LF polypeptides (CFU after 6 h); assay type: cell-based
Procedure: The antimicrobial activity of the catheptic polypeptide was measured against a clinical isolate, E. coli 0111. […] The 6 kDa catheptic fragment of LF is therefore at least as potent as twelve other natural antimicrobial polypeptides (H. G. Boman, J. Marsh, and J. A. Goode, Eds., Antimicrobial Peptides, (John Wiley & Sons Ltd., New York, N.Y., 1994)), and can function as a bactericidal agent. […] At 100 μM polypeptide, the number of viable bacteria was more than 1,000-fold greater in the cultures treated with the pepsinolytic versus cathepsinolytic fragment (FIG. 1). The basis for this difference in potency may be related to the additional, internal, pepsin cleavages which occur between the two disulfide bridges in the 6 kDa domain (Mann et al., J. Biol. Chem. 269: 23661-7 (1994); Bellamy et al., Biochim. Biophys. Acta 1121: 130-6 (1992)).
Antimicrobial assay for LF polypeptides. Cultures of E. coli 0111 (American Type Culture Collection #43887) were grown at 37° C. in 1% bactopeptone (BP) (Difco) in Dulbecco's phosphate buffered saline (dPBS) (Mediatech) with aeration by shaking (225 rpm). overnight cultures were diluted 8,000-fold in 2×concentrated BP/dPBS and mixed with an equal volume of sterile endotoxin-free distilled water containing serial dilutions of the polypeptide to be tested. The final assay volume was […] in a 12 mm×75 mm polypropylene tube (Falcon) with an ultimate dilution of the overnight cultures of 1:16,000 to yield an original inoculum of ˜1-2×10^4 CFU/ml. The final assay medium was physiological in ionic strength, 1% bactopeptone in 1×Dulbecco's phosphate buffered saline. Cultures were grown for 6 h at 37° C. with aeration as above and then cell density determined by measuring CFU/ml for each assay culture tube. Serial dilutions of each assay tube were plated on Luria Broth bactoagar and incubated for 24 h at 37° C. prior to counting colonies. All assays were done in triplicate and the standard deviation calculated for each concentration of inhibitor. Culture density at the beginning and end of the 6 h growth period was also determined from triplicate cultures lacking any polypeptide inhibitors. Untreated cultures typically grew to 1-2×10^8 CFU/ml in 6 h under these assay conditions.

[2] = biological target: T1, cathepsin D (Bos taurus, UniProt P80209); assay: Exposure of LF digest to cathepsin D, persistence of the 6 kDa polypeptide; assay type: in vitro ADME, bovine; settings: immunoblot
T1 construct: Prior to digestion with bovine spleen cathepsin D (Sigma); purchased Sigma; host or cells: bovine spleen (tissue-derived enzyme)
T1 sequence (P80209 45-390): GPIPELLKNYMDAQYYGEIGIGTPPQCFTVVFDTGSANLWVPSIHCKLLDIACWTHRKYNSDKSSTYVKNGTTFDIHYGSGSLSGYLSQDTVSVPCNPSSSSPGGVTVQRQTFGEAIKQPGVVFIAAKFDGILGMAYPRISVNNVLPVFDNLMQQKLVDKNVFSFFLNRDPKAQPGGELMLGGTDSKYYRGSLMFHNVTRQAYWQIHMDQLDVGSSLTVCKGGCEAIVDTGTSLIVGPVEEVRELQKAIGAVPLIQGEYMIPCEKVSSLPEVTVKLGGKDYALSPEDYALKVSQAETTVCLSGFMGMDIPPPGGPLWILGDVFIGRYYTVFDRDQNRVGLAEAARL
Excerpt: To establish which protease(s) could be responsible for releasing the N-terminal domain, LF processing by several proteases relevant to inflammation or microbial infections, including elastase, cathepsins G and D, a matrix metalloproteinase, and the “V8” protease from S. aureus, was examined. Of these, only cathepsin D, a lysosomal protease abundant in phagocytes (Bever et al., Inflammation 13: 309-16 (1989); Levy et al., Infect. Immun. 57: 1632-4 (1989)), was able to liberate the N-terminus intact as a small, heparin-binding, polypeptide. Exposure of either iron-saturated or iron-free LF to even small amounts of cathepsin D (1/200th, w:w) for a period as brief as five minutes yielded the N-terminal 6 kDa polypeptide, detectable by immunoblot analysis, using the N-terminal peptide-specific antibody. […] MALDI mass spectrometry analysis indicated a molecular mass of 5741 Da, very close to the value of 5744 Da expected for a LF polypeptide starting at Gly-1 and ending with Ala-49.
Purification of LF from human colostrum and proteolytic liberation of the antimicrobial domain in vitro. Frozen colostrum was thawed at 37° C. and defatted by centrifugation for 40 min at 10,000×g at 4° C. […] LF concentration was determined spectrophotometrically at 280 nm (using E280nm 1 cm 0.1%=1.0402). […]

6 kDa polypeptide: 6 kDa fragment produced by cathepsin D digestion of human LF, amino acids 1-49 of SEQ ID NO: 2 (GRRRRSVQWCAVSQPEATKCFQWQRNMRKVRGPPVSCIKRDSPIQCIQA; listed as Homo sapiens)
reduction in cell growth ([1]; 100 μM polypeptide): greater than 10,000 fold
number of viable CFUs ([1]; 100 μM polypeptide, original inoculum 2.14×10^4 CFU/ml): 8.8×10^3 CFU/ml
minimum inhibitory concentration (MIC) ([1]; E. coli 0111, physiological ionic strength, 6 h, CFU): 1 to 5 µM
potency against bacteria relative to the fragment liberated by pepsin ([1]; from MICs): ~10 fold
stability of the polypeptide on longer exposure to cathepsin D [2]: stable and resistant to further degradation for at least three days

From US6399570B1, “Antimicrobial/endotoxin neutralizing polypeptide” (priority 1999, dated 2002)
